# Measured values taken from EP1053246B1, “BETA-SHEET MIMETICS AND METHODS RELATING TO THE USE THEREOF” (MOLECUMETICS, LTD., priority 1998, dated 1999).
# How the values were obtained:
# [1] = target: T1, thrombin (Bos taurus, UniProt P00735); test: thrombin inhibition assay (IC50, Example 4); format: biochemical, bovine; conditions: footnote d: IC50
# [2] = target: T2, FVIIa and TF complex (Homo sapiens, UniProt P08709); test: Factor VII inhibition assay (IC50, Example 4); format: biochemical; conditions: footnote d: IC50
# T2 construct: 50 µl of 16 nM FVIIa and TF complex solution
# Experimental: (§1) All inhibition assays of this experiment were performed at room temperature in 96 well microplates using a Bio-Rad microplate reader (Model 3550). […] This solution (2.05 mM) served as the stock solution for all the inhibition assays. The hydrolysis of chromogenic substrates was monitored at 405 nm. The reaction progress curves were recorded by reading the plates typically 90 times with 30 seconds to 2 minute intervals. The initial rate were determined by unweighted nonlinear least-squares fitting to a first order reaction in GraFit.
# In the Factor VII assay, S-2288 (from Pharmacia), D-Ile-Pro-Arg-pNA was used at […] in deionized water as substrate. […] This dilution served as the first point of the inhibitor (20 µM). From this concentration point 6 more sequential dilutions were made with a dilution factor of 2. 50 µl of 16 nM FVIIa and TF complex solution and 40 µl of the inhibitor solutions were added into each well, the mixtures were incubated for 20 minutes before 10 µl of 20 mM S-2288 was added.
# [3] = target: T3, bovine factor Xa (Bos taurus, UniProt P00743); test: Factor X inhibition assay (IC50, Example 4); format: biochemical; conditions: footnote d: IC50; footnote e: bovine plasma; read-out: IC50 Factor X
# T3 construct: bovine factor Xa (from Sigma); purchased Sigma
# Experimental: as §1
# In the Factor X assay, buffer and substrate are the same as used for thrombin assay. A 1:100 dilution was made into pH 8.4 Tris buffer to serve as the first point. Seven dilutions with a dilution factor of 2 were made. The assay protocol is the same as for thrombin except 25 nM of bovine factor Xa (from Sigma) in pH 8.4 Tris buffer was used instead of thrombin.
# [4] = target: Tissue Plasminogen Activator (t-PA) (Homo sapiens, UniProt P00750); test: t-PA inhibition assay (IC50, Example 4); format: biochemical; conditions: footnote d: IC50
# Experimental: as §1
# [5] = target: Activated Protein C (aPC) (Homo sapiens, UniProt P04070); test: activated protein C inhibition assay (IC50, Example 4); format: biochemical; conditions: footnote d: IC50
# Experimental: as §1
# Activated Protein C (aPC): Buffer was the same as used in thrombin assay. […] Dilutions of structure (13b) were the same as in urokinase assay.
# [6] = target: T4, bovine trypsin (Bos taurus, UniProt P00760); test: trypsin inhibition assay (IC50, Example 4); format: biochemical; conditions: footnote d: IC50
# T4 construct: purchased Sigma
# Experimental: as §1
# In the trypsin assay, pH 7.8 Tris (0.10 M Tris and 0.02 M CaCl2) was utilized as the buffer. BAPNA (from Sigma) was used at 1 mg/ml in 1% DMSO (v/v) deionized water solution as substrate. The same dilutions of structure (13b) were made as for Factor VII assay.
# [7] = target: T5, urokinase (Homo sapiens, UniProt P00749); test: urokinase inhibition assay (IC50, Example 4); format: biochemical; set-up: purchased Sigma; conditions: footnote d: IC50
# Experimental: as §1
# In the urokinase assay, buffer was pH 8.8 0.05 M Tris and 0.05 M NaCl in deionized water. S-2444 (from Sigma), pyroGlu-Gly-Arg-pNA at 0.5 mM in water was utilized as substrate. The same dilution procedure was used as for Factor VII and Factor X. Assay protocol is the same as for thrombin except 18.5 nM of human urokinase (from Sigma) was utilized.
# [8] = target: T6, Plasmin (Bos taurus, UniProt P06868); test: plasmin inhibition assay (IC50, Example 4); format: biochemical; set-up: Plasmin: Buffer (see thrombin assay); conditions: footnote d: IC50
# Experimental: as §1
# For dilutions of structure (13b) (see urokinase assay).
# [9] = target: T1, thrombin; test: thrombin inhibition of solid phase synthesized mimetics; format: biochemical; conditions: assayed as mixtures of diastereomers; read-out: Ki as thrombin inhibitors (asterisk at compound number)
# Experimental: General Procedure: The synthesis of β-strand mimetics was initiated by deprotection of Fmoc PAL resin using 25% piperidine in DMF. Following extensive washing with DMF, the resin was treated with the acid fluoride of N-Fmoc-4-aminomethylbenzoic acid, or (81), or (86) and Hunigs' base in DMF until the Kaiser test was negative. Alternatively, the Fmoc-protected thiazole- (75) or imidazole-based (77) linkers were coupled to the resin using BOP, HOBt and DIEA. In some instances Fmoc-Leu or another amino acid was attached to the resin prior to the thiazole- (75) or imidazole-based (77) linkers via the same methodology. […] Deprotection of all Fmoc-protected linkers was effected by treatment with 25% piperidine in DMF, and deprotection the Boc-protected linker (77) was effected by TMS-Cl (1 M) and phenol (3 M) in dichloromethane for 30 min. The lysinol derivative (90) was coupled to resin-bound linkers N-Fmoc-4-aminomethylbenzoic acid, (81), or (86) using PyBOP, HOBt and Hunigs' base in DMF until a negative Kaiser test was achieved. Treatment of the resin with 25% piperidine in DMF then cleaved the FMOC group. Following washing with DMF a dienoic acid was coupled to the resin-bound linkers using PyBOP, HOBt and Hunigs' base in DMF until the result of a Kaiser test was negative. […]
# [10] = target: T7, factor VII (Homo sapiens, UniProt P08709); test: Factor VII inhibition assay (Ki, Example 5); format: biochemical; conditions: read-out: Ki (M) Factor VII
# T7 construct: human Factor VIIa (FVIIa)
# T7 sequence (P08709 61-212 limits assumed): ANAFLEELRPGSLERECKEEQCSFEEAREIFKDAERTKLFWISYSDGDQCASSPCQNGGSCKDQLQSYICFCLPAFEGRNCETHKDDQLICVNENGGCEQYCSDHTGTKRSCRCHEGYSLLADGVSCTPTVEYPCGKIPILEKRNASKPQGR
# T7 sequence (P08709 213-466 limits assumed): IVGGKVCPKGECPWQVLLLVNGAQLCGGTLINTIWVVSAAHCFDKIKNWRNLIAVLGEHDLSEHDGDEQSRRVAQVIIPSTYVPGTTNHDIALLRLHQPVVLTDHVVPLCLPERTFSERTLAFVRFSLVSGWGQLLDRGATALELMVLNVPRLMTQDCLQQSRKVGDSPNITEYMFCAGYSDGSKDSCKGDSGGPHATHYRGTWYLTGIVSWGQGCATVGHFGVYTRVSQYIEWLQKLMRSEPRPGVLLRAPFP
# Experimental: (§2) The reaction progress curves were recorded by reading the plates, typically 60 times with 30 second to 2 minute intervals. Initial rates were determined by unweighted nonlinear least-squares fitting to a first order reaction in GraFit (Erithacus Software Limited, London, England).
# From this concentration point seven more sequential dilutions were made for the assay.
# [11] = target: t-PA (Homo sapiens, UniProt P00750); test: t-PA inhibition assay (Ki, Example 5); format: biochemical; conditions: tissue Plasminogen Activator; read-out: Ki (M) tPA
# Experimental: as §2
# [12] = target: Factor XI (Homo sapiens, UniProt P03951); test: Factor XI inhibition assay (Ki); format: biochemical; conditions: read-out: Ki (M) Factor XI
# [13] = target: T5, urokinase; test: urokinase inhibition assay (Ki, Example 5); format: biochemical, human kidney; set-up: from tissue; host or cells: human kidney
# [14] = target: T6, Plasmin; test: plasmin inhibition assay (Ki, Example 5); format: biochemical, bovine plasma; set-up: Plasmin: Buffer (see thrombin assay); from tissue; host or cells: bovine plasma; conditions: read-out: Ki (M) Plasmin
# Experimental: as §2
# T6 sequence (P06868 104-583 limits assumed): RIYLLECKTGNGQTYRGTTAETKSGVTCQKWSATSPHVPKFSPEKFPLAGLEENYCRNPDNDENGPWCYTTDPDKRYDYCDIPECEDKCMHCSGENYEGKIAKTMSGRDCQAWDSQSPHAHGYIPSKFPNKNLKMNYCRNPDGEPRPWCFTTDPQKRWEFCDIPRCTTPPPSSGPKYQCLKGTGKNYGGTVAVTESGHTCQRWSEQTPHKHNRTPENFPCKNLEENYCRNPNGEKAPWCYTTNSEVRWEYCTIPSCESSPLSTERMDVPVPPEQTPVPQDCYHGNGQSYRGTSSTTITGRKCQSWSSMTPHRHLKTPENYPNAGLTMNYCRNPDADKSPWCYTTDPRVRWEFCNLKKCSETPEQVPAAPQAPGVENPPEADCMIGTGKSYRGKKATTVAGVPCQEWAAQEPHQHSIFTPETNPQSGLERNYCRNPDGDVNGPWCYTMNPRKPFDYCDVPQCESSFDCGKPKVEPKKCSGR
# T6 sequence (P06868 584-812 limits assumed): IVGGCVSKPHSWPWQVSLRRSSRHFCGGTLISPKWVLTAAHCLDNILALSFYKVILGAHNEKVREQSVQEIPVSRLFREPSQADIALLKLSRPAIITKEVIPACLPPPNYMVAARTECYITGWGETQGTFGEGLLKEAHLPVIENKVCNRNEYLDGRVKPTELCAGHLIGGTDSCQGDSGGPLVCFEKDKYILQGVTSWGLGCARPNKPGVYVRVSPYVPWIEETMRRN
# T3 sequence (P00743 41-180 limits assumed): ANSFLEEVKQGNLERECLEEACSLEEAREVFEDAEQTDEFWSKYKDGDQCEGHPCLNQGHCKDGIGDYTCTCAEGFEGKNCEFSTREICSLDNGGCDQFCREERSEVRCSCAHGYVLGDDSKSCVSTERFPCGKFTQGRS
# T3 sequence (P00743 234-492 limits assumed): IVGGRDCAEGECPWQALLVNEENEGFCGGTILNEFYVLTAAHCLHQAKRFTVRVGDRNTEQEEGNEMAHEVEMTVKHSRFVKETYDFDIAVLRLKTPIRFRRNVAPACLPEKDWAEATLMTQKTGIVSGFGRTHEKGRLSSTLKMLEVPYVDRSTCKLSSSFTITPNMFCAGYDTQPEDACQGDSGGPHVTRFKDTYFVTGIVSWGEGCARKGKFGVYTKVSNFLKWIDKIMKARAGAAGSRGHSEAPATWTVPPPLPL
# Chain of Tissue Plasminogen Activator (t-PA) (P00750 36-562): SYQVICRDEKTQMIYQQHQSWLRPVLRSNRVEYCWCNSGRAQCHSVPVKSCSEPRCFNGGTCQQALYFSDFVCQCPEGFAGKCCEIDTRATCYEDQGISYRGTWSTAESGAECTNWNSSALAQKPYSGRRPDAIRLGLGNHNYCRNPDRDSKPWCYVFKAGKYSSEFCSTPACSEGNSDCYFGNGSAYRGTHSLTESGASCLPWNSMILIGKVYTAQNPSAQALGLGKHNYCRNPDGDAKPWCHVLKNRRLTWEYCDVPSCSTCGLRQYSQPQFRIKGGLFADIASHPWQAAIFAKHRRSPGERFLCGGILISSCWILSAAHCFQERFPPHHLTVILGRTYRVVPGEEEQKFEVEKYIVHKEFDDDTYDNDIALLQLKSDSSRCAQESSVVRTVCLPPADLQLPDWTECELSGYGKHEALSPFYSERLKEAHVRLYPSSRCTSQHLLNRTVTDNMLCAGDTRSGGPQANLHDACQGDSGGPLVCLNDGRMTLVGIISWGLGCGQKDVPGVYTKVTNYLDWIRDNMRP
# Chain of t-PA (P00750 36-562): as above
# T2 sequence (P13726 33-295 partner, one chain of several): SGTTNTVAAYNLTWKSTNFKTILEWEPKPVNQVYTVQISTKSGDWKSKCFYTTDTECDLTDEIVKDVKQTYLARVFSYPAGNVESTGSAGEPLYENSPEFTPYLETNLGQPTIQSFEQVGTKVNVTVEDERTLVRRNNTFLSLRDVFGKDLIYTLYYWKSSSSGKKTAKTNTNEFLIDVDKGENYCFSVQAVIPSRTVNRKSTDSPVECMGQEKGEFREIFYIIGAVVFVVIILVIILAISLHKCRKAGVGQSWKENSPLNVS
# T4 sequence (P00760 24-246): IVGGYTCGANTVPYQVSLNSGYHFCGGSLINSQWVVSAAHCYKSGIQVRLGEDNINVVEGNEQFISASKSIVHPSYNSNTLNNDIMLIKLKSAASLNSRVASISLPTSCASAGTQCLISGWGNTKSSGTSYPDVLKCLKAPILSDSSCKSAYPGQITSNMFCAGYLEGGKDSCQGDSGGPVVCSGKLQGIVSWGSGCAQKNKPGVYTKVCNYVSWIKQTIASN
# Chain of Activated Protein C (aPC) (P04070 43-197 limits assumed): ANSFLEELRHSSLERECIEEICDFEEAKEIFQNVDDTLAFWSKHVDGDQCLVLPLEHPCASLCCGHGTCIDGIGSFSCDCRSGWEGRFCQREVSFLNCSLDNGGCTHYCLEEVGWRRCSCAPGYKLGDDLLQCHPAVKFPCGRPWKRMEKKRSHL
# Chain of Activated Protein C (aPC) (P04070 212-461 limits assumed): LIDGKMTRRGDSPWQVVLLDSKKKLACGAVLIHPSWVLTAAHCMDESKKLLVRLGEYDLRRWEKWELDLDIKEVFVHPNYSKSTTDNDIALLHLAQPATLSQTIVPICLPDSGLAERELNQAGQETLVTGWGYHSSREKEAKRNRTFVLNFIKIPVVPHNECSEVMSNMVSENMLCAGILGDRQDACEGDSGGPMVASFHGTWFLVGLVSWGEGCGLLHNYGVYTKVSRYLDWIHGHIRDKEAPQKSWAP
# Chain of Factor XI (P03951 388-625 limits assumed): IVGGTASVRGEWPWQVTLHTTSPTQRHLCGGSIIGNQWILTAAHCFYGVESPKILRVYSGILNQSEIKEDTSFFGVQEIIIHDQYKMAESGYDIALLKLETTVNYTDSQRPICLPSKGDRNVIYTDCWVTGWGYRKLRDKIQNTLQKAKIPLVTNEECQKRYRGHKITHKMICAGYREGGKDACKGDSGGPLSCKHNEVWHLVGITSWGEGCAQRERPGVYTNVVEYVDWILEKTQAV
# Chain of Factor XI (P03951 19-387 limits assumed): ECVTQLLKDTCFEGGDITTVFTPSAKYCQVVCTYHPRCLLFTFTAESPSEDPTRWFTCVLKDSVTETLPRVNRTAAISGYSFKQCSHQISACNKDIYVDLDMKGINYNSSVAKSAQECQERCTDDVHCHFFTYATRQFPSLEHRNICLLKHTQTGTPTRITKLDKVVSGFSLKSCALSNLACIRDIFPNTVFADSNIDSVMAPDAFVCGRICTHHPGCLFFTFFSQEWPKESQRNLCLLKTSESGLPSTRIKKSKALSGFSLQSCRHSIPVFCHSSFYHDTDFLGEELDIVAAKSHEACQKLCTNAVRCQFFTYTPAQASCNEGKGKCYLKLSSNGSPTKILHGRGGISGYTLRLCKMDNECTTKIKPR
compound,measurement,setting,value
N=C(N)NCCC[C@H](NC(=O)[C@@H]1CCN2CC[C@@](N)(Cc3ccccc3)C(=O)N12)C(=O)CCl [Structure (13b)],IC50,[1],1.2 nM
same,IC50,[2],140 nM
same,IC50,[3],386 nM
same,IC50,[4],632 nM
same,IC50,[5],528 nM
same,IC50,[6],160 nM
same,IC50,[7],927 nM
same,IC50,[8],978 nM
CC/C=C\CCC1C=CC(C(=O)NC(CCCCN)C(=O)C(=O)NCCc2ccc(C(N)=O)cc2)n2c(=O)n(CC(c3ccccc3)c3ccccc3)c(=O)n21 (centres unmarked) [compound 106],Ki,[9],< 10 nM
N=C(N)NCCCC(NC(=O)C1CCN2CCC(N)(Cc3ccccc3)C(=O)N12)C(=O)c1nc2ccccc2s1 (centres unmarked) [Structure (20b)],Ki,[10],2.7e-07 M
same,Ki,[11],4.95e-07 M
same,Ki,[12],2.7e-08 M
same,Ki,[13],600 nM
same,Ki,[14],4.15e-07 M
